In one experiment the test system is M. tuberculosis H37Rv. Nature of the experiment: microbe, parasite or virus in culture. The format is cell-based.
Details: not given
`CCOC(=O)Nc1cc(N[C@@H](C)C(=O)c2ccc(O)cc2)c([N+](=O)[O-])c(N)n1` [Compound A305]: the “% Inh” value is −2%.
On to `CCOC(=O)Nc1cc(NCCCCc2ccccc2)c(N)c(N)n1` [Compound A93], for which the “% Inh” value is listed as 60%.
In the case of `CCOC(=O)Nc1cc(NCc2ccccc2)c(N)c(N)n1` [Compound A154], the “% Inh” value is recorded as 12%.

Staying with this experiment, now noted: M. tuberculosis H37Rv, screen concentration 12.5 g/ml [sic], Table 8.
Consider `CCOC(=O)Nc1cc2c(c(N)n1)N=C(c1ccccc1)CS2` [Compound A77], for which the “% Inh” value is 71%.
Consider `CCOC(=O)Nc1cc2[nH]c(-c3cc(OC)c(OC)cc3OC)nc2c(N(CCc2ccccc2)Cc2ccccc2)n1` [Compound A29], for which the “% Inh” value came to 97%.
Still for that read-out and setting: next, `CCOC(=O)Nc1cc(Cl)c2nc(-c3cc(OC)c(OC)c(OC)c3)c(-c3cc(OC)c(OC)c(OC)c3)nc2n1` [Compound A268]: 0%.
As to `CCOC(=O)Nc1cc(NCC(O)CN(C)c2ccccc2)c(N)c(NC(=O)OCC)n1` (centres unmarked) [Compound A169], the “% Inh” value was found to be 7%.
For the molecule `CCOC(=O)Nc1cc(NC/C(=N/O)c2ccc(Cl)cc2)c([N+](=O)[O-])c(N)n1` [Compound A239], the “% Inh” value is on record as 0%.
In the case of `CCOC(=O)Nc1cc2c(c(N)n1)N=C(CN(C)c1ccccc1)CN2` [Compound A80], the “% Inh” value is reported as 70%.
Consider `CCOC(=O)Nc1cc(NCCc2ccc(S(=O)(=O)N(CC)CC)cc2)c2nccnc2n1` [Compound A252], for which the “% Inh” value amounted to 0%.
On the same count and under the same terms, next, `CCOC(=O)Nc1ccc(N)c(N)n1` [Compound A236]: 0%; `CCOC(=O)Nc1cc(NCCCCc2ccccc2)c([N+](=O)[O-])c(N)n1` [Compound A90]: 62%; `CCOC(=O)Nc1cc2c(cn1)N=C(c1ccccc1)[C@H](C)N2` [Compound A105]: 49%.
With `CCOC(=O)Nc1cc2c(nc(SCc3ccccc3)n2/N=C/c2ccccc2)c(N)n1` [Compound A132], the “% Inh” value is listed as 24%.
For the molecule `CCOC(=O)Nc1cc2ncc(-c3ccccc3)nc2c(NC(C)=O)n1` [Compound A159], the “% Inh” value was 10%.
For `O=C(Nc1cc(Cl)cc(NC(=O)OCc2ccccc2)n1)OCc1ccccc1` [Compound A188], the “% Inh” value was 1%.
As for `CCOC(=O)Nc1cc(NC(C)[C@H](O)c2ccccc2)c(N)c(N)n1` (some centres unmarked) [Compound A99], the “% Inh” value stood at 56%.
On to `CCOC(=O)Nc1cc(NCCc2ccccc2)c(N)c(N)n1.Cl.Cl` [Compound A95], for which the “% Inh” value was 59%.
Regarding `CCOC(=O)Nc1cc(Nc2ccc(Cl)cc2)c2nc(-c3ccccc3)c(-c3ccccc3)nc2n1` [Compound A257], the “% Inh” value turned out to be 0%.
On to `CCOC(=O)Nc1cc(N)c([N+](=O)[O-])c(NCC(O)CN(C)c2ccccc2)n1` (centres unmarked) [Compound A274], for which the “% Inh” value is listed as 0%.
Turning to `CCOC(=O)Nc1cc2c(c(N)n1)N=C(c1ccc(O)cc1)[C@@H](C)N2` [Compound A166], the “% Inh” value is reported as 8%.
For `CCOC(=O)Nc1cc(NCC(O)CN(C)c2ccccc2)c([N+](=O)[O-])c(N)n1` (centres unmarked) [Compound A101], the “% Inh” value is 54%.
For `CCOC(=O)Nc1cc(N)c2nc(C)cnc2n1` [Compound A282], the “% Inh” value is listed as 0%.
Same read-out and setting: next, `CCOC(=O)Nc1cc(NC(C)C(=O)c2ccccc2)c([N+](=O)[O-])c(N)n1` (centres unmarked) [Compound A161]: 9%; `CCOC(=O)Nc1cc(NC(c2ccccc2)c2ccccc2)c([N+](=O)[O-])c(OCC(=O)c2ccc(Br)cc2)n1` [Compound A295]: 0%; `CCOC(=O)Nc1cc2c(c(N)n1)N=C(c1ccccc1)CO2` [Compound A224]: 0%.
Same read-out and setting: then `CCOC(=O)Nc1cc2c(c(N)n1)N=C(c1ccc(O)cc1)C(C)N2` (centres unmarked) [Compound A197], with 0%; and `CCCCC(Nc1cc(NC(=O)OCC)nc(N)c1[N+](=O)[O-])C(C)O` (centres unmarked) [Compound A302], with −1%.
The same measure, in the same setting: next, `CCOC(=O)Nc1cc2ncc(C)nc2c(NC(=O)OCC)n1` [Compound A276]: 0%; `CCOC(=O)Nc1cc(N(C)N)c([N+](=O)[O-])c(N)n1` [Compound A209]: 0%; `CCCCNC(=O)Oc1ccc(C2=Nc3c(cc(NC(=O)OCC)nc3N)N[C@@H]2C)cc1` [Compound A171]: 7%.
`CCOC(=O)Nc1cc(NC(c2ccccc2)c2ccccc2)c([N+](=O)[O-])c(Cl)n1` [Compound A299]: the “% Inh” value was found to be 0%.
Consider `CCOC(=O)Nc1cc(NCC(=O)c2ccc(F)cc2)c([N+](=O)[O-])c(N)n1` [Compound A211], for which the “% Inh” value was found to be 0%.
Regarding `CCCCC(O)C(C)Nc1cc(NC(=O)OCC)nc(N)c1N` (centres unmarked) [Compound A181], the “% Inh” value came to 3%.
As to `CCOC(=O)Nc1cc(NC(c2ccccc2)c2ccccc2)c2nc[nH]c2n1.Cl` [Compound A280], the “% Inh” value stood at 0%.
For `CCOC(=O)Nc1cc(Cl)c([N+](=O)[O-])c(NC(=O)OCC)n1` [Compound A94], the “% Inh” value is recorded as 59%.
In the case of `CCOC(=O)Nc1cc(NC(C)C(O)c2ccc(O)cc2)c([N+](=O)[O-])c(N)n1` (centres unmarked) [Compound A303], the “% Inh” value is listed as −2%.
On the same count and under the same terms, then `CCOC(=O)Nc1cc(Nc2ccc(Cl)cc2)c2nc(-c3ccc(Cl)cc3)c(-c3ccc(Cl)cc3)nc2n1` [Compound A121], with 33%.
For the molecule `CCOC(=O)Nc1cc2nc(-c3ccc(Cl)cc3)[nH]c2c(N(CCc2ccccc2)Cc2ccccc2)n1` [Compound A27], the “% Inh” value turned out to be 97%.
`CCOC(=O)Nc1cc(NC(C)/C(=N/O)c2ccc(NC)cc2)c([N+](=O)[O-])c(N)n1` (centres unmarked) [Compound A144]: the “% Inh” value turned out to be 16%.
On to `CCOC(=O)Nc1cc2c(c(N)n1)N=C(c1ccc3ccccc3c1)CS2` [Compound A97], for which the “% Inh” value was 58%.
Regarding `CCOC(=O)Nc1cc2oc(-c3ccc(Cl)cc3)nc2c(N(CCc2ccccc2)Cc2ccccc2)n1` [Compound A137], the “% Inh” value was 21%.
With `CCOC(=O)Nc1cc2ncc(CN(C)c3ccccc3)nc2c(N)n1` [Compound A78], the “% Inh” value was determined as 71%.
Still for that read-out and setting: next, `CCOC(=O)Nc1cc2c(nc(SCc3ccc4c(c3)OCO4)n2N)c(N)n1` [Compound A91]: 61%; `CCOC(=O)Nc1cc(NC/C(=N/O)c2ccc(OC)cc2)c([N+](=O)[O-])c(N)n1` [Compound A182]: 2%; `CCOC(=O)Nc1cc2[nH]c(-c3ccc(Oc4ccccc4)cc3)nc2c(N(CCc2ccccc2)Cc2ccccc2)n1` [Compound A15]: 98%.

Staying with this experiment, now noted: Mycobacterium tuberculosis; M. tuberculosis H37Rv; at 12.5% μg/ml (so in the source); read-out: Primary Screen PI (% inhibition of growth).
Usually inhibition of growth stands for the relative decrease from the control value, in per cent. On to `CCCCNC(=O)Oc1ccc(C2=Nc3c(cc(NC(=O)OCC)nc3N)N[C@H]2C)cc1` [SRI-20158, [5-Amino-3-(4-butylcarbamoyloxy-phenyl)-2-methyl-1,2-dihydro-pyrido[3,4-b]pyrazin-7-yl]-carbamic acid ethyl ester], for which the inhibition of growth at 12.5 µg/mL amounted to 10%.
In the case of `CCOC(=O)Nc1cc2c(c(N)n1)N=C(CN(C)c1ccc(OC)cc1)CN2` [SRI-5713, (5-Amino-3-{[(4-methoxy-phenyl)-methyl-amino]-methyl}-1,2-dihydro-pyrido[3,4-b]pyrazin-7-yl)-carbamic acid ethyl ester], the inhibition of growth at 12.5 µg/mL is 20%.
For `CCOC(=O)Nc1cc2nc(-c3ccccc3)c(-c3ccccc3)nc2c(OCC)n1` [Compound 3491-23, (5-Ethoxy-2,3-diphenyl-pyrido[3,4-b]pyrazin-7-yl)-carbamic acid ethyl ester], the inhibition of growth at 12.5 µg/mL turned out to be 95%.

The experiment is the same for the next values; noted with them: in words.
On to `CCOC(=O)Nc1cc2nc(-c3ccccc3)c(-c3ccccc3)nc2c(OCC)n1` [Compound 3491-23, (5-Ethoxy-2,3-diphenyl-pyrido[3,4-b]pyrazin-7-yl)-carbamic acid ethyl ester], for which the “activity against M. tuberculosis H37Rv in the primary screen” value is on record as “demonstrated activity”.
